Test results: patent US20070129344A1, “Bicyclic 6-alkylidene-penem beta-lactamase inhibitors and beta-lactam antibiotic combination: a broad spectrum antibiotic” (priority 2005, published 2007)
Where a name gives a salt, the structure may show the parent alone.

What was measured:
[1] = test system: K. pn GC 2391 (pl 5.4; 5.6; 7.6; 8.7 B-lactamases); test: MIC microbroth dilution; β-lactamase class A, A (ESBL), C; format: cell-based, K. pneumoniae; settings: Klebsiella pneumoniae, Cefepime + 4 ug/ml Compound 2, read-out: MIC
Protocol: (§1) The in vitro activities of the antibiotics were determined by the microbroth dilution method as recommended by the National Committee for Clinical Laboratory Standards (NCCLS). (NCCLS. 2000. Methods for Dilution Antimicrobial Susceptibility Tests for Bacteria That Grow Aerobically; Approved Standards: M7-A5, vol. 19. National Committee for Clinical Laboratory Standards, Villanova, Pa.). Mueller-Hinton II broth (MHBII)(BBL Cockeysville, Md.), was used for the testing procedure. […]. The plates were incubated for 18-22 hours at 35° C. in ambient air.

[2] = test system: S. maltophilia GC 1712 (L1); test: MIC microbroth dilution; β-lactamase class B; format: cell-based; settings: Stenotrophomonas maltophilia, Cefepime + 4 ug/ml Compound 2, read-out: MIC
Protocol: as §1

[3] = test system: K. pneumoniae GC 7635 SHV-1, KPC2; test: MIC microbroth dilution; β-lactamase class A, A (Cb'ase); format: cell-based; settings: Klebsiella pneumoniae, Cefepime + 4 ug/ml Compound 2, read-out: MIC
Protocol: as §1

[4] = test system: K. pneumoniae GC 2825 Act 1 + 3 additional; test: MIC microbroth dilution; β-lactamase class A, A (ESBL), C; format: cell-based; settings: Klebsiella pneumoniae, Cefepime + 4 ug/ml Compound 2, read-out: MIC
Protocol: as §1

[5] = test system: E. coli GC 6197 (TEM-1 + SHV-7 + CMY-2); test: as above; format: cell-based; settings: Escherichia coli, Cefepime + 4 ug/ml Compound 2, read-out: MIC
Protocol: as §1

[6] = test system: K. pneumoniae GC 2826 Act 1 + 3 additional; test: as above; format: cell-based; settings: Klebsiella pneumoniae, Cefepime + 4 ug/ml Compound 2, read-out: MIC
Protocol: as §1

[7] = test system: E. coli GC 2149 (ACT-1; TEM-1 + pl 5.6); test: as above; format: cell-based; settings: Escherichia coli, Cefepime + 4 ug/ml Compound 2, read-out: MIC
Protocol: as §1

[8] = test system: K. pneumoniae GC 7632 TEM-1 KPC-2, SHV-7, SHV-12; test: MIC microbroth dilution; β-lactamase class A, A (Cb'ase), A (ESBL); format: cell-based; settings: Klebsiella pneumoniae, Cefepime + 4 ug/ml Compound 2, read-out: MIC
Protocol: as §1

[9] = test system: A. baumannii GC 6660 IMI-R; test: MIC microbroth dilution; class PBP (penicillin binding protein); format: cell-based; settings: Acinetobacter baumannii, GC6660IMIR, Cefepime + 4 ug/ml Compound 2, read-out: MIC
Protocol: as §1

[10] = test system: A. baumannii GC 6661 IMI-R; test: as above; format: cell-based; settings: Acinetobacter baumannii, GC6661IMIR, Cefepime + 4 ug/ml Compound 2, read-out: MIC
Protocol: as §1

[11] = test system: A. baumannii GC 6662 IMI-R; test: as above; format: cell-based; settings: Acinetobacter baumannii, GC6662IMIR, Cefepime + 4 ug/ml Compound 2, read-out: MIC
Protocol: as §1

[12] = test system: E. coli GC 4971 OXA-1, TEM-1; test: MIC microbroth dilution; β-lactamase class A, D; format: cell-based; settings: Escherichia coli, Cefepime + 4 ug/ml Compound 2, read-out: MIC
Protocol: as §1

E. coli GC 2920 (IRT-2) = test: MIC microbroth dilution; β-lactamase class A (IRT); format: cell-based; settings: Escherichia coli, Cefepime + 4 ug/ml Compound 2, read-out: MIC
Protocol: as §1

[13] = test system: E. coli GC 2017 (TEM-10 + pl 6.3; 8.1); test: MIC microbroth dilution; β-lactamase class A (ESBL); format: cell-based; settings: Escherichia coli, Cefepime + 4 ug/ml Compound 2, read-out: MIC
Protocol: as §1

E. coli GC 1995 (TEM-10) = test: as above; format: cell-based; settings: Escherichia coli, Cefepime + 4 ug/ml Compound 2, read-out: MIC
Protocol: as §1

[14] = test system: S. typhimurium GC 4197 CTX-M-5; test: as above; format: cell-based; settings: Salmonella enterica, Cefepime + 4 ug/ml Compound 2, read-out: MIC
Protocol: as §1

E. coli GC 2300 (TEM-28) = test: as above; format: cell-based; settings: Escherichia coli, Cefepime + 4 ug/ml Compound 2, read-out: MIC
Protocol: as §1

E. coli GC 2400 (TEM-43) = test: as above; format: cell-based; settings: Escherichia coli, Cefepime + 4 ug/ml Compound 2, read-out: MIC
Protocol: as §1

E. coli GC 1684 (TEM-10) = test: as above; format: cell-based; settings: Escherichia coli, Cefepime + 4 ug/ml Compound 2, read-out: MIC
Protocol: as §1

E. coli GC 6368 (SHV-7) = test: as above; format: cell-based; settings: Escherichia coli, Cefepime + 4 ug/ml Compound 2, read-out: MIC
Protocol: as §1

E. coli GC 2804 (imp) = test: MIC microbroth dilution; β-lactamase class none; format: cell-based; settings: Escherichia coli, Cefepime + 4 ug/ml Compound 2
Protocol: as §1

E. coli GC 2844 (none) = test: MIC microbroth dilution; β-lactamase class none; format: cell-based; settings: Escherichia coli, Cefepime + 4 ug/ml Compound 2, read-out: MIC
Protocol: as §1

[15] = test system: E. coli ATCC 25922 (none); test: MIC microbroth dilution; β-lactamase class none; format: cell-based; settings: Escherichia coli, ATCC25922, E. coli ATCC 25922; Cefepime + 4 ug/ml Compound 2; read-out: MIC
Protocol: as §1

[16] = test system: C. freundii GC 4171 TEM-1 + InducibleAmpC; test: MIC microbroth dilution; β-lactamase class A, C; format: cell-based; settings: Citrobacter freundii
Protocol: as §1

[17] = test system: E. cloacae GC 7065 TEM-26, SHV-12 Amp C inducable; test: MIC microbroth dilution; β-lactamase class A (ESBL), C; format: cell-based; settings: Enterobacter cloacae, Cefepime + 4 ug/ml Compound 2, read-out: MIC
Protocol: as §1

[18] = test system: E. cloacae GC 7052 SHV-5, Amp C inducable; test: as above; format: cell-based; settings: Enterobacter cloacae, Cefepime + 4 ug/ml Compound 2, read-out: MIC
Protocol: as §1

[19] = test system: E. aerogenes GC 7039 TEM-4, Amp C inducable; test: as above; format: cell-based; settings: Klebsiella aerogenes, Cefepime + 4 ug/ml Compound 2, read-out: MIC
Protocol: as §1

[20] = test system: M. morganii GC 1617 TEM-10 + inducible AmpC; test: as above; format: cell-based; settings: Morganella morganii, Cefepime + 4 ug/ml Compound 2, read-out: MIC
Protocol: as §1

[21] = test system: E. aerogenes GC 7036 TEM-24, Amp C inducable; test: as above; format: cell-based; settings: Klebsiella aerogenes, Cefepime + 4 ug/ml Compound 2, read-out: MIC
Protocol: as §1

[22] = test system: E. coli GC 1499 (TEM-4 + TEM-1); test: MIC microbroth dilution; β-lactamase class A, A (ESBL); format: cell-based; settings: Escherichia coli, Cefepime + 4 ug/ml Compound 2, read-out: MIC
Protocol: as §1

[23] = test system: E. coli GC 2015 (TEM-10 + SHV-1); test: as above; format: cell-based; settings: Escherichia coli, Cefepime + 4 ug/ml Compound 2, read-out: MIC
Protocol: as §1

[24] = test system: E. coli GC 2146 (TEM-1; SHV-7); test: as above; format: cell-based; settings: Escherichia coli, Cefepime + 4 ug/ml Compound 2, read-out: MIC
Protocol: as §1

[25] = test system: E. coli GC 6260 (TEM-1 + SHV-5); test: as above; format: cell-based; settings: Escherichia coli, Cefepime + 4 ug/ml Compound 2, read-out: MIC
Protocol: as §1

[26] = test system: E. coli GC 1695 (TEM-1 + TEM-10); test: as above; format: cell-based; settings: Escherichia coli, Cefepime + 4 ug/ml Compound 2, read-out: MIC
Protocol: as §1

[27] = test system: E. coli GC 5901 (TEM-1 and SHV-8); test: as above; format: cell-based; settings: Escherichia coli, Cefepime + 4 ug/ml Compound 2, read-out: MIC
Protocol: as §1

O=C(O)C1=CS[C@@H]2/C(=C\c3cn4c(n3)COCC4)C(=O)N12 [Compound 2, (5R), (6Z)-6-(5,6-Dihydro-8H-imidazo[2.1-c][1,4]oxazin-2-ylmethylene)-7-oxo-4-thia-1-azabicyclo[3.2.0]hept-2-ene-2-carboxylic Acid, Sodium Salt]
MIC [1]: 0.5 µg/mL
MIC [2]: 16 µg/mL
MIC [3]: 4 µg/mL
MIC [4]: 0.12 µg/mL
MIC [5]: 2 µg/mL
MIC [6]: 1 µg/mL
MIC [7]: 0.5 µg/mL
MIC [8]: > 16 µg/mL
MIC [9]: > 16 µg/mL
MIC [10]: 16 µg/mL
MIC [11]: > 16 µg/mL
MIC [12]: 0.12 µg/mL
MIC (E. coli GC 2920 (IRT-2)): 0.06 µg/mL
MIC [13]: 0.06 µg/mL
MIC (E. coli GC 1995 (TEM-10)): 0.03 µg/mL
MIC [14]: 0.25 µg/mL
MIC (E. coli GC 2300 (TEM-28)): 0.25 µg/mL
MIC (E. coli GC 2400 (TEM-43)): 0.5 µg/mL
MIC (E. coli GC 1684 (TEM-10)): 0.06 µg/mL
MIC (E. coli GC 6368 (SHV-7)): 0.06 µg/mL
MIC (E. coli GC 2804 (imp)): < 0.015 µg/mL
MIC (E. coli GC 2844 (none)): 0.06 µg/mL
MIC [15]: 0.06 µg/mL
MIC [16]: 0.06 µg/mL
MIC [17]: 0.06 µg/mL
MIC [18]: 1 µg/mL
MIC [19]: 0.06 µg/mL
MIC [20]: 0.12 µg/mL
MIC [21]: 0.06 µg/mL
MIC [22]: 1 µg/mL
MIC [23]: 0.12 µg/mL
MIC [24]: 0.12 µg/mL
MIC [25]: 0.03 µg/mL
MIC [26]: 0.03 µg/mL
MIC [27]: 2 µg/mL
